Publication PMC3684613 (PLoS ONE, 2013)
Where two headings read alike, the source gives them in different places.

Legend:
P. falciparum 3D7 [1] = test system: P. falciparum 3D7; design: method as in ChEMBL-NTD; conditions: ref ChEMBL-NTD, cited from earlier work
P. falciparum 3D7 [2] = assay: DAPI stain fluorescent high content imaging assay, P. falciparum 3D7 (confirmatory screen, Avery); conditions: Plasmodium falciparum; for EC50: 3D7, read-out: EC50_nM; for inhibition of growth at 5 µM: 3D7, read-out: percent_inh @ 5 uM; for inhibition of growth at 2 µM: 3D7, read-out: percent_inh @ 2 uM
[3] = original screening data, source (GSK, GNF, StJude), several values separated by ';' in order of sources
[4] = values follow the order of the source (GNF; GSK; StJude)

Structure (SMILES)	EC50 (P. falciparum 3D7 [2]) [nM]	inhibition of growth at 5 µM (P. falciparum 3D7 [2]) [%]	also measured
CCC(c1ccccc1)c1nn2c(-c3cccs3)nnc2s1 (centres unmarked) [MMV665876]	259	99	EC50 (P. falciparum 3D7 [1]; source GSK (TCMDC id)): 167 nM
Cc1ccnc(NC(c2cccc(OCc3ccccc3)c2)c2ccc3cccnc3c2O)c1 (centres unmarked) [MMV000720]	1020	97	EC50 (P. falciparum 3D7 [1]; source GSK (TCMDC ids)): 864 nM; EC50 (P. falciparum 3D7 [1]; source StJude (SJ ids)): 1810 nM
COc1cccc(O)c1CN1CCC2(CCCN(Cc3ccc(F)cc3)C2)C1 (centres unmarked) [MMV666061]	530	95	EC50 (P. falciparum 3D7 [1]; source GSK): 865 nM
CCOC(=O)c1cnc2c(CC)cccc2c1O [MMV498479]	–	87	EC50 (P. falciparum 3D7 [1]; source GNF (GNF-Pf ids)): 1660 nM
CCCCCC(=O)N1c2ccccc2N=C2CC(c3ccc(OC)c(OC)c3)CC(O)=C2C1c1ccc(C(F)(F)F)cc1 (centres unmarked) [MMV085583]	237	100	EC50 (P. falciparum 3D7 [1]; source GNF (GNF-Pf id)): 107 nM
CCCCCCOC(=O)C1=C(C)NC(=O)NC1c1ccccc1F (centres unmarked) [MMV007686]	106	95	EC50 (P. falciparum 3D7 [1]; source GNF (GNF-Pf id)): 6760 nM
CC1=C(CC(=O)c2cccc([N+](=O)[O-])c2)C(=O)c2ccccc2C1=O [MMV666125]	381	95	EC50 (P. falciparum 3D7 [1]; source GNF (GNF-Pf ids)): 2840 nM
COc1ccc(CN2CCCC(C(=O)c3ccc(C(F)(F)F)cc3)C2)c(O)c1 (centres unmarked) [MMV666060]	–	97	EC50 (P. falciparum 3D7 [1]; source GSK (TCMDC ids)): 849 nM
CCC(C)NCC(O)(c1ccc(Cl)cc1)c1ccc(Cl)cc1 (centres unmarked) [MMV665928]	642	98	EC50 (P. falciparum 3D7 [1]; source GNF): 639 nM; EC50 (P. falciparum 3D7 [1]; source GSK): 843 nM
CC(C)c1ccc(CNCC(O)c2ccccc2)cc1 (centres unmarked) [MMV001049]	1260	96	EC50 (P. falciparum 3D7 [1]; [3]): 1350 nM
COc1ccc(Nc2nc(NN=Cc3ccc(O)cc3)nc(Nc3ccc([N+](=O)[O-])cc3)n2)cc1 [MMV666689]	532	98	EC50 (P. falciparum 3D7 [1]; source GSK): 1120 nM
COc1ccc(CCNC(=O)c2cc(S(=O)(=O)N3CC(C)CC(C)C3)ccc2Sc2ccc(F)cc2)cc1OC (centres unmarked) [MMV007557]	632	97	EC50 (P. falciparum 3D7 [1]; source GNF (GNF-Pf ids)): 1050 nM
COc1ccc(C(=O)NC(c2ccc(Cl)cc2Cl)c2cc(Cl)c3cccnc3c2O)cc1 (centres unmarked) [MMV666054]	513	96	EC50 (P. falciparum 3D7 [1]; source GSK (TCMDC ids)): 499 nM
CN(C)c1ccc(C=Cc2nc(=O)c3ccccc3o2)cc1 [MMV006309]	51.5	96	EC50 (P. falciparum 3D7 [1]; source GSK (TCMDC id)): 44.6 nM
CC(C)(C)c1ccc(C2CC3=Nc4ccccc4N(C(=O)c4ccccc4Cl)C(c4ccc(F)cc4)C3=C(O)C2)cc1 (centres unmarked) [MMV011436]	946	96	EC50 (P. falciparum 3D7 [1]; [4]): 2630 nM
Cc1ccc(C)c(Cn2c(N3CCC(C(=O)NCc4cccs4)CC3)nc3ccccc32)c1 [MMV019741]	1330	97	EC50 (P. falciparum 3D7 [1]; source GSK (TCMDC ids)): 938 nM
COc1ccc(CCn2c(=N)c(C(=O)NCc3cccnc3)cc3c(=O)n4cccc(C)c4nc32)cc1 [MMV667488]	373	–	EC50 (P. falciparum 3D7 [1]; [4]): 1400 nM
COc1cccc(Nc2nc(N)c3ccccc3n2)c1 [MMV019199]	4000	–	EC50 (P. falciparum 3D7 [1]; [4]): 934 nM; inhibition of growth at 2 µM (P. falciparum 3D7 [2]): 94%
COc1ccccc1N=C1C(=O)c2ccccc2C(O)=C1N1CCCCC1 [MMV085203]	5.3	98	EC50 (P. falciparum 3D7 [1]; source GNF (GNF-Pf id)): 28 nM
O=C(Nc1ccc(F)c(Cl)c1)Nc1ccc(Cl)c(Cl)c1 [MMV665953]	2060	95	EC50 (P. falciparum 3D7 [1]; source StJude): 5410 nM

Structure (SMILES)	EC50 (P. falciparum 3D7 [2]) [nM]	inhibition of growth at 5 µM (P. falciparum 3D7 [2]) [%]	also measured
CCOc1ccc(Nc2c3ccccc3nc3ccccc23)cc1 [MMV000304]	1060	97	EC50 (P. falciparum 3D7 [1]; source StJude (SJ ids)): 5720 nM
COc1ccc(CNC2CCN(c3ccc(NC(=O)c4cccc(Cl)c4)cc3)CC2)cc1OC [MMV666067]	663	97	EC50 (P. falciparum 3D7 [1]; source GSK): 1020 nM
O=C(NC1CCCC1)c1ccc(N2CCC(NCc3cccc(C(F)(F)F)c3)CC2)cc1 [MMV666070]	–	93	EC50 (P. falciparum 3D7 [1]; source GSK): 1330 nM
O=C(Nc1ccc(-c2nc3ccccc3[nH]2)cc1)c1ccc(Cl)c(Cl)c1 [MMV665840]	838	97	EC50 (P. falciparum 3D7 [1]; [4]): 523 nM
CCOc1ccc(C=Cc2nc(=O)c3ccccc3o2)cc1 [MMV665940]	560	95	EC50 (P. falciparum 3D7 [1]; source StJude): 188 nM
Fc1ccc2[nH]c3c(NCCCN4CCOCC4)ncnc3c2c1 [MMV019871]	345	98	EC50 (P. falciparum 3D7 [1]; source GSK (TCMDC id)): 714 nM
CC(NCc1ccccc1)c1cc(Cl)ccc1O (centres unmarked) [MMV665789]	603	95	EC50 (P. falciparum 3D7 [1]; source GNF): 592 nM
COc1ccc(NC(=O)C2c3ccccc3C(=O)N(CC(C)C)C2c2cccs2)cc1 (centres unmarked) [MMV000662]	36.7	100	EC50 (P. falciparum 3D7 [1]; source StJude (SJ id)): 102 nM
O=C(O)C1Cc2c([nH]c3ccccc23)C(c2ccc(Cl)cc2Cl)N1 (centres unmarked) [MMV008138]	350	–	EC50 (P. falciparum 3D7 [1]; source GNF (GNF-Pf id)): 1020 nM; EC50 (P. falciparum 3D7 [1]; source GSK (TCMDC id)): 954 nM
CN1CCN(c2c3c(c(C#N)c4nc5ccccc5n24)CCC3)CC1 [MMV008127]	4000	–	EC50 (P. falciparum 3D7 [1]; [3]): 1180 nM; inhibition of growth at 2 µM (P. falciparum 3D7 [2]): 42%
CCN(CC)CCNc1ccnc2cc3ccccc3cc12 [MMV006303]	391	–	EC50 (P. falciparum 3D7 [1]; [4]): 28.6 nM
COc1ccc(C(=O)C(CCC(CNC(C)(C)C)C(=O)c2ccc(OC)cc2)CNC(C)(C)C)cc1 (centres unmarked) [MMV007591]	–	85	EC50 (P. falciparum 3D7 [1]; [4]): 1120 nM
CCN(CC)CCNc1ncnc2c1[nH]c1ccc(Br)cc12 [MMV006545]	707	–	EC50 (P. falciparum 3D7 [1]; [3]): 288 nM
CCOC(=O)c1cnc2ccc(Cl)cc2c1NCCCN(C)C [MMV006882]	1190	98	EC50 (P. falciparum 3D7 [1]; source GNF (GNF-Pf ids)): 826 nM
CCOC(=O)c1c(NC(=O)c2ccccc2)sc2c(O)c(CN(CC)CC)ccc12 [MMV665831]	205	96	EC50 (P. falciparum 3D7 [1]; source GNF (GNF-Pf id)): 267 nM; EC50 (P. falciparum 3D7 [1]; source GSK (TCMDC id)): 969 nM
CCOc1ccc2nc(C)cc(Nc3ccc(N(C)C)cc3)c2c1 [MMV007020]	4000	–	EC50 (P. falciparum 3D7 [1]; [4]): 344 nM; inhibition of growth at 2 µM (P. falciparum 3D7 [2]): 94%
CC(C)(C)c1ccc(C(=O)Nc2c3c(nn2-c2cccc(Cl)c2)CSC3)cc1 [MMV666123]	–	93	EC50 (P. falciparum 3D7 [1]; source StJude (SJ ids)): 15000 nM
CCCCCCn1c(=N)n(CC(O)COc2cccc(C)c2)c2ccccc21 (centres unmarked) [MMV000445]	1140	98	EC50 (P. falciparum 3D7 [1]; source StJude (SJ ids)): 1970 nM
COc1ccc2sc(N(Cc3cccnc3)C(=O)c3ccc(C#N)cc3)nc2c1 [MMV001239]	–	–	EC50 (P. falciparum 3D7 [1]; [4]): 15000 nM; inhibition of growth at 2 µM (P. falciparum 3D7 [2]): 89%
O=C(Nc1cccc(C(F)(F)F)c1)c1cc(Cl)ccc1O [MMV665807]	–	93	EC50 (P. falciparum 3D7 [1]; source StJude): 973 nM

Structure (SMILES)	EC50 (P. falciparum 3D7 [2]) [nM]	inhibition of growth at 5 µM (P. falciparum 3D7 [2]) [%]	also measured
CCOC(=O)c1c(C)n(-c2ccc(Cl)cc2)c2ccc(OC(=O)C=Cc3ccccc3)cc12 [MMV666600]	216	97	EC50 (P. falciparum 3D7 [1]; source GSK (TCMDC id)): 698 nM
O=[N+]([O-])c1ccc(C=NNc2nc3ccccc3[nH]2)cc1 [MMV666607]	142	99	EC50 (P. falciparum 3D7 [1]; source GNF (GNF-Pf id)): 818 nM; EC50 (P. falciparum 3D7 [1]; source GSK (TCMDC id)): 283 nM
CC(C)(C)c1ccc(C(=O)Nc2nc3ccccc3s2)cc1 [MMV142383]	–	81	EC50 (P. falciparum 3D7 [1]; source StJude): 15000 nM
CCc1c(C)c(=N)c2ccccc2n1C [MMV006278]	378	76	EC50 (P. falciparum 3D7 [1]; source GNF (GNF-Pf id)): 701 nM
Cc1cc(N2CCN(C3CCCC3)CC2)n2c(nc3ccccc32)c1C#N [MMV006706]	683	–	EC50 (P. falciparum 3D7 [1]; [3]): 743 nM
CCOc1cc(Cl)c(C(C)NC(=O)c2cccc(OC)c2)cc1OCC (centres unmarked) [MMV665803]	728	98	EC50 (P. falciparum 3D7 [1]; source GSK): 956 nM
CC(C)(C)C(=O)Nc1ccc(C(=O)Nc2cccc(-c3nc4ccccc4[nH]3)c2)cc1 [MMV665879]	–	91	EC50 (P. falciparum 3D7 [1]; [3]): 282 nM
C=CCc1c(C)nc2ccccc2c1O [MMV006913]	1290	85	EC50 (P. falciparum 3D7 [1]; [3]): 707 nM
Cc1ccc(NC(=O)Nc2cccc(Cl)c2)cc1F [MMV000911]	–	52	EC50 (P. falciparum 3D7 [1]; [3]): 15000 nM
Cn1c(=O)c2cc(C(=O)NCCCN3CCCCCC3)sc2c2ccccc21 [MMV019313]	669	97	EC50 (P. falciparum 3D7 [1]; source GSK): 689 nM
COc1cc(-c2nc(-c3ccc(Sc4ccccc4)cc3)c(-c3ccccc3)[nH]2)cc(OC)c1O [MMV007273]	350	97	EC50 (P. falciparum 3D7 [1]; source GNF (GNF-Pf ids)): 1280 nM
CCn1c(CN2CCN(Cc3ccccc3)CC2)nc2cc(NC(=O)c3cccs3)ccc21 [MMV020439]	512	97	EC50 (P. falciparum 3D7 [1]; source GSK (TCMDC id)): 402 nM
CCCCCn1c(=N)n(CC(O)COc2cccc(C)c2)c2ccccc21 (centres unmarked) [MMV000444]	–	96	EC50 (P. falciparum 3D7 [1]; source StJude (SJ ids)): 2650 nM
COc1ccc(-n2ccnc2SCC(=O)Nc2cc(C)ccc2C)c(OC)c1 [MMV019258]	170	95	EC50 (P. falciparum 3D7 [1]; source GSK (TCMDC id)): 205 nM
Cc1cc(=O)oc2c1ccc1oc(C(=O)c3ccccc3)c(C)c12 [MMV006753]	–	94	EC50 (P. falciparum 3D7 [1]; source GNF (GNF-Pf ids)): 441 nM
O=C(Nc1ccc(-c2nc3cc4ccccc4cc3[nH]2)cc1)c1cccc(Br)c1 [MMV019241]	450	93	EC50 (P. falciparum 3D7 [1]; source GSK (TCMDC ids)): 363 nM
CCCCCCC(O)(c1ccc(F)cc1)C(CN1CCOCC1)c1ccccc1 (centres unmarked) [MMV000621]	–	93	EC50 (P. falciparum 3D7 [1]; source StJude (SJ ids)): 3180 nM
CCN1CCN(Cc2ccc(NC(=O)c3cc4ccc5cccnc5c4[nH]3)cc2)CC1 [MMV020548]	361	70	EC50 (P. falciparum 3D7 [1]; source GSK (TCMDC id)): 848 nM
